Our source for the Activity and inhibition values is ChEMBL document CHEMBL5131489, “Linotrins: Omega-3 oxylipins featuring an E,Z,E conjugated triene motif are present in the plant kingdom and alleviate inflammation in LPS-challenged microglial cells” (2022).

Active and inactive are the calls of the source. No cut-off for these calls is given here.

The subject of assay [1] is BV-2. Briefly: Antiinflammatory activity against LPS-stimulated C57BL/6 mouse microglial BV-2 cells assessed as reduction in cellular content of IL-6 level at 30 umol/L pretreated for 3 hrs followed by LPS stimulation and measured after 24 hrs by AlphaLISA assay. The format is functional, cell-based. To be noted: dose 30.0 µmol/L, time 27.0 hrs. For orientation: Alpha assays give light when donor and acceptor beads are brought close together.

The test system of assay [2] is BV-2. Briefly: Antiinflammatory activity in C57BL/6 mouse microglial BV-2 cells assessed as reduction in LPS-induced IL-6 release at 30 umol/L pretreated for 3 hrs followed by LPS stimulation and measured after 6 hrs by AlphaLISA assay. It is filed as functional. The conditions noted are these: C57BL/6, BV-2, 9 h, dose 30 µmol/L.
Assay [3] concerns BV-2. The assay can be described thus: Antiinflammatory activity against LPS-stimulated C57BL/6 mouse microglial BV-2 cells assessed as reduction in cellular content of IL-1 beta level at 30 umol/L pretreated for 3 hrs followed by LPS stimulation and measured after 24 hrs by AlphaLISA assay. It is filed as functional, cell-based. To be noted: dose 30.0 µmol/L, time 27.0 hrs.
Assay [4] concerns BV-2. The assay can be described thus: Antiinflammatory activity in C57BL/6 mouse microglial BV-2 cells assessed as reduction in LPS induced IL-6 mRNA expression level at 30 umol/L pretreated for 3 hrs followed by LPS stimulation and measured after 24 hrs by qRT-PCR analysis. To be noted: dose 30.0 µmol/L, time 27.0 hrs. The format is functional, cell-based. (In general: In qPCR the cycle at which signal appears reflects the starting amount.)

Assay [5] has as its system BV-2. Briefly: Antiinflammatory activity against LPS-stimulated C57BL/6 mouse microglial BV-2 cells assessed as reduction in cellular content of TNF-alpha level at 30 umol/L pretreated for 3 hrs followed by LPS stimulation and measured after 24 hrs by AlphaLISA assay. The conditions noted are these: dose 30.0 µmol/L, time 27.0 hrs. The format is functional, cell-based.

The test system of assay [6] is BV-2. Briefly: Antiinflammatory activity in C57BL/6 mouse microglial BV-2 cells assessed as reduction in LPS induced IL-1 beta mRNA expression level at 30 umol/L pretreated for 3 hrs followed by LPS stimulation and measured after 24 hrs by qRT-PCR analysis. The format is functional, cell-based. The conditions noted are these: dose 30.0 µmol/L, time 27.0 hrs.
For assay [7], the system named is BV-2. Briefly: Antiinflammatory activity in C57BL/6 mouse microglial BV-2 cells assessed as reduction in LPS-induced TNF-alpha release at 30 umol/L pretreated for 3 hrs followed by LPS stimulation and measured after 6 hrs by AlphaLISA assay. To be noted: C57BL/6, BV-2, 9 h, dose 30 µmol/L. It is filed as functional.
Assay [8] concerns BV-2. Briefly: Antiinflammatory activity against LPS-stimulated C57BL/6 mouse microglial BV-2 cells assessed as reduction in cellular content of TNF-alpha level at 30 umol/L pretreated for 3 hrs followed by LPS stimulation and measured after 6 hrs by AlphaLISA assay. To be noted: dose 30.0 µmol/L, time 9.0 hrs. It is filed as functional, cell-based.
Assay [9] concerns BV-2. Briefly: Antiinflammatory activity in C57BL/6 mouse microglial BV-2 cells assessed as reduction in LPS-induced TNF-alpha release at 30 umol/L pretreated for 3 hrs followed by LPS stimulation and measured after 24 hrs by AlphaLISA assay. The format is functional. To be noted: C57BL/6, BV-2, 27 h, dose 30 µmol/L.
For assay [10], the system named is BV-2. The assay can be described thus: Antiinflammatory activity against LPS-stimulated C57BL/6 mouse microglial BV-2 cells assessed as reduction in cellular content of IL-6 level at 30 umol/L pretreated for 3 hrs followed by LPS stimulation and measured after 6 hrs by AlphaLISA assay. It is filed as functional, cell-based. To be noted: dose 30.0 µmol/L, time 9.0 hrs.

In assay [11] the test system is BV-2. The assay can be described thus: Antiinflammatory activity in C57BL/6 mouse microglial BV-2 cells assessed as reduction in LPS-induced IL-6 release at 30 umol/L pretreated for 3 hrs followed by LPS stimulation and measured after 24 hrs by AlphaLISA assay. It is filed as functional. To be noted: C57BL/6, BV-2, 27 h, dose 30 µmol/L.

As a reminder, the inhibition is the share of the control response that was lost under treatment. Consider `CCC(O)/C=C/C=C\C=C\[C@H](O)CCCCCCCC(=O)O` (mixture of isomers), for which the result in the assay on BV-2 [1], with BV-2 [3], in the assay with BV-2 [4], in the assay on BV-2 [5], in the assay with BV-2 [6] and with BV-2 [8] was Active. Further, the result with BV-2 [10] was Active. Moreover, the inhibition at 30 µM stood at 20.8% in the assay with BV-2 [2], 14.1% with BV-2 [7], 22.7% in the assay with BV-2 [9] and 30.5% with BV-2 [11].
